Source: patent publication US5525626A (priority 1989, dated 1996)

Legend:
Assay in all cases: 3H-thymidine assay
Type in all cases: cell-based
Daudi leukemic cells = settings: Homo sapiens
At T 20 = settings: Mus musculus
Experimental: (§1) The cell lines were cultivated as indicated in Example 1.
(§2) The antiproliferative effect of the 1,2-benzopyrone derivatives according to the invention on the tumor cell lines in each case was shown with the help of the ^3 H-thymidine insertion and with reference to growth curves.
(§3) In a 24-well-plate, in each case 10^4 cells of the line to be investigated were inoculated per well. Approximately 48 hours later the cells were half-confluent; the medium was then changed and replaced by a medium containing the active substance in question (cf Table 3). After a further 48 hours 0.25 μCi ^3 H-thymidine (Ammersham) was added to each well and the cells were incubated for a further 24 hours. Subsequently the cultures were washed twice with ice-cold PBS and the high-molecular-weight ^3 H-radioactivity was precipitated with 5% trichloroacetic acid for one hour at 4° C. After the washing of the cells in PBS the ^3 H-radioactivity was solubilized with 0.3M NaOH and measured in the counter. The growth-inhibition was determined by comparing the thymidine insertion of the cells treated with active substance with untreated cells.
(§4) The active substance concentration in each case was so chosen that ^3 H-thymidine insertion was 50% inhibited. The active substance concentrations used under this aspect for the active substances and cell lines in each case are given in table 4 below in μM/ml, […]

CAKI-1 cells = settings: Homo sapiens
Experimental: as §1, §2, §3, §4

K-562 leukemic cells = settings: Homo sapiens
Experimental: as §1, §2, §3, §4

[1] = test system: MCF-7 breast cancer cells; settings: Homo sapiens
Experimental: as §1, §2, §3, §4

CAKI-2 cells = settings: Homo sapiens
Experimental: as §1, §2
as §3, with “After a further 48 hours 0.25 μCi ^3 H-thymidine (Ammersham) was added to each well and the cells were incubated for a further 24 hours.” left out
as §4

[2] = test system: Z-R-75-1 breast cancer cells; settings: Homo sapiens
[3] = test system: GV-1 prostate carcinoma cells
A-375 melanoma cells = settings: Homo sapiens
[4] = read-out: 3H-thymidine tracer (%) of control
[5] = read-out: active substance concentration at which 3H-thymidine insertion was 50% inhibited
[6] = AtT20, read-out: 3H-thymidine tracer (%) of control
[7] = CAKI-1, read-out: 3H-thymidine tracer (%) of control
[8] = K562, read-out: 3H-thymidine tracer (%) of control
[9] = MCF7, read-out: 3H-thymidine tracer (%) of control
[10] = CAKI-2, read-out: 3H-thymidine tracer (%) of control
[11] = ZR-75-1, read-out: 3H-thymidine tracer (%) of control
[12] = A-375, read-out: 3H-thymidine tracer (%) of control

O=c1ccc2cc(O[C@@H]3O[C@H](CO)[C@@H](O)[C@H](O)[C@H]3O)c(O)cc2o1 [Esculin, 6-beta-D-glucopyranosyloxy-7-hydroxy-1,2-benzopyrone]
activity at 1 µM (Daudi leukemic cells; [4]): 100% | activity at 2 µM (Daudi leukemic cells; [4]): 98% | activity at 4 µM (Daudi leukemic cells; [4]): 93% | activity at 8 µM (Daudi leukemic cells; [4]): 87% | activity at 16 µM (Daudi leukemic cells; [4]): 80% | activity at 25 µM (Daudi leukemic cells; [4]): 71% | activity at 50 µM (Daudi leukemic cells; [4]): 69% | activity at 100 µM (Daudi leukemic cells; [4]): 52% | activity at 250 µM (Daudi leukemic cells; [4]): 48% | activity at 500 µM (Daudi leukemic cells; [4]): 44% | IC50 (Daudi leukemic cells; [5]): 100 µM | activity at 1 µM (At T 20; [6]): 100% | activity at 2 µM (At T 20; [6]): 94% | activity at 4 µM (At T 20; [6]): 89% | activity at 8 µM (At T 20; [6]): 83% | activity at 16 µM (At T 20; [6]): 72% | activity at 25 µM (At T 20; [6]): 69% | activity at 50 µM (At T 20; [6]): 64% | activity at 100 µM (At T 20; [6]): 58% | activity at 250 µM (At T 20; [6]): 49% | activity at 500 µM (At T 20; [6]): 44% | IC50 (At T 20; AtT20, read-out: active substance concentration at which 3H-thymidine insertion was 50% inhibited): 250 µM | activity at 1 µM (CAKI-1 cells; [7]): 100% | activity at 2 µM (CAKI-1 cells; [7]): 94% | activity at 4 µM (CAKI-1 cells; [7]): 92% | activity at 8 µM (CAKI-1 cells; [7]): 83% | activity at 16 µM (CAKI-1 cells; [7]): 78% | activity at 25 µM (CAKI-1 cells; [7]): 74% | activity at 50 µM (CAKI-1 cells; [7]): 65% | activity at 100 µM (CAKI-1 cells; [7]): 60% | activity at 150 µM (CAKI-1 cells; [7]): 53% | activity at 500 µM (CAKI-1 cells; [7]): 47% | IC50 (CAKI-1 cells; CAKI-1, read-out: active substance concentration at which 3H-thymidine insertion was 50% inhibited): 375 µM | activity at 1 µM (K-562 leukemic cells; [8]): 100% | activity at 2 µM (K-562 leukemic cells; [8]): 100% | activity at 4 µM (K-562 leukemic cells; [8]): 96% | activity at 8 µM (K-562 leukemic cells; [8]): 88% | activity at 16 µM (K-562 leukemic cells; [8]): 81% | activity at 25 µM (K-562 leukemic cells; [8]): 72% | activity at 50 µM (K-562 leukemic cells; [8]): 70% | activity at 100 µM (K-562 leukemic cells; [8]): 58% | activity at 250 µM (K-562 leukemic cells; [8]): 51% | activity at 500 µM (K-562 leukemic cells; [8]): 40% | IC50 (K-562 leukemic cells; K562, read-out: active substance concentration at which 3H-thymidine insertion was 50% inhibited): 250 µM | activity at 1 µM [1, 9]: 99% | activity at 2 µM [1, 9]: 91% | activity at 4 µM [1, 9]: 88% | activity at 8 µM [1, 9]: 80% | activity at 16 µM [1, 9]: 71% | activity at 25 µM [1, 9]: 69% | activity at 50 µM [1, 9]: 62% | activity at 100 µM [1, 9]: 51% | activity at 250 µM [1, 9]: 49% | activity at 500 µM [1, 9]: 42% | IC50 ([1]; MCF7, read-out: active substance concentration at which 3H-thymidine insertion was 50% inhibited): > 100 µM | activity at 1 µM (CAKI-2 cells; [10]): 99% | activity at 2 µM (CAKI-2 cells; [10]): 96% | activity at 4 µM (CAKI-2 cells; [10]): 90% | activity at 8 µM (CAKI-2 cells; [10]): 84% | activity at 16 µM (CAKI-2 cells; [10]): 73% | activity at 25 µM (CAKI-2 cells; [10]): 72% | activity at 50 µM (CAKI-2 cells; [10]): 66% | activity at 100 µM (CAKI-2 cells; [10]): 50% | activity at 150 µM (CAKI-2 cells; [10]): 56% | activity at 500 µM (CAKI-2 cells; [10]): 52% | IC50 (CAKI-2 cells; CAKI-2, read-out: active substance concentration at which 3H-thymidine insertion was 50% inhibited): > 500 µM | activity at 1 µM [2, 11]: 100% | activity at 2 µM [2, 11]: 97% | activity at 4 µM [2, 11]: 89% | activity at 8 µM [2, 11]: 85% | activity at 16 µM [2, 11]: 75% | activity at 25 µM [2, 11]: 72% | activity at 50 µM [2, 11]: 64% | activity at 100 µM [2, 11]: 56% | activity at 250 µM [2, 11]: 51% | activity at 500 µM [2, 11]: 47% | IC50 ([2]; ZR-75-1, read-out: active substance concentration at which 3H-thymidine insertion was 50% inhibited): 250 µM | activity at 1 µM [3, 4]: 97% | activity at 2 µM [3, 4]: 95% | activity at 4 µM [3, 4]: 85% | activity at 8 µM [3, 4]: 84% | activity at 16 µM [3, 4]: 79% | activity at 25 µM [3, 4]: 76% | activity at 50 µM [3, 4]: 68% | activity at 100 µM [3, 4]: 60% | activity at 250 µM [3, 4]: 51% | activity at 500 µM [3, 4]: 43% | IC50 [3, 5]: 250 µM | activity at 1 µM (A-375 melanoma cells; [12]): 100% | activity at 2 µM (A-375 melanoma cells; [12]): 96% | activity at 4 µM (A-375 melanoma cells; [12]): 93% | activity at 8 µM (A-375 melanoma cells; [12]): 87% | activity at 16 µM (A-375 melanoma cells; [12]): 82% | activity at 25 µM (A-375 melanoma cells; [12]): 78% | activity at 50 µM (A-375 melanoma cells; [12]): 71% | activity at 100 µM (A-375 melanoma cells; [12]): 64% | activity at 250 µM (A-375 melanoma cells; [12]): 60% | activity at 500 µM (A-375 melanoma cells; [12]): 57% | IC50 (A-375 melanoma cells; A-375, read-out: active substance concentration at which 3H-thymidine insertion was 50% inhibited): > 500 µM
